Where “and” joins values, the source holds several entries; their conditions need not be identical. Identical values can stand only once. Inconclusive results and toxic doses are left out. Non-standard residues stand in square brackets, D forms with d. Residues, ends and D or L forms follow the SMILES beside them. Ac5c = NC1(C(=O)O)CCCC1

The experiment has as its system CD2F1 mice, L1210 leukemia ip, survival T/C. Kind of experiment: NCI In Vivo Anticancer Drug Screen. Data for tumor model L1210 Leukemia (intraperitoneal) in CD2F1 (CDF1) mice. The note with it: higher = longer survival. The essentials:
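Read-out first: treated-group measurement over vehicle-control measurement, expressed as a ratio. Animals bore a transplanted tumor line and were dosed with compound or vehicle.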

Setting [1] is: endpoint: mean survival time, dose: 25.0 mg/kg/injection, schedule: Q01DX009 (ip), vehicle: saline with Tween-80.
Where [2] appears, read: endpoint: mean survival time, dose: 50.0 mg/kg/injection, schedule: Q01DX009 (ip), vehicle: saline with Tween-80.
[3] abbreviates: endpoint: mean survival time, dose: 100.0 mg/kg/injection, schedule: Q01DX009 (ip), vehicle: saline with Tween-80.
Setting [4] is: endpoint: mean survival time, dose: 100.0 mg/kg/injection, schedule: Q04DX003 (ip), vehicle: saline with Tween-80.
Setting [5] is: endpoint: mean survival time, dose: 200.0 mg/kg/injection, schedule: Q01DX009 (ip), vehicle: saline with Tween-80.
Setting [6] is: endpoint: mean survival time, dose: 400.0 mg/kg/injection, schedule: Q01DX009 (ip), vehicle: saline with Tween-80.
The mark [7] stands for this setting: endpoint: mean survival time, dose: 100.0 mg/kg/injection, schedule: Q01DX001 (ip), vehicle: saline with Tween-80.
Where [8] appears, read: endpoint: mean survival time, dose: 200.0 mg/kg/injection, schedule: Q01DX001 (ip), vehicle: saline with Tween-80.
Where [9] appears, read: endpoint: mean survival time, dose: 400.0 mg/kg/injection, schedule: Q01DX001 (ip), vehicle: saline with Tween-80.
Setting [10] is: endpoint: mean survival time, dose: 200.0 mg/kg/injection, schedule: Q04DX003 (ip), vehicle: saline with Tween-80.
The mark [11] stands for this setting: endpoint: mean survival time, dose: 400.0 mg/kg/injection, schedule: Q04DX003 (ip), vehicle: saline with Tween-80.

Turning to `COc1oc(C2C/C(=C/C(C)=C/C(C)=C/C(C)=C/c3ccc([N+](=O)[O-])cc3)CO2)c(C)c(=O)c1C` (centres undefined), the T/C was 104 % of control and 108 % of control (endpoint: median survival time, dose: 0.25 mg/kg/injection, schedule: Q01DX009 (ip), vehicle: saline); 118 % of control and 124 % of control and 112 % of control (endpoint: median survival time, dose: 0.5 mg/kg/injection, schedule: Q01DX009 (ip), vehicle: saline); 118 % of control and 124 % of control (endpoint: median survival time, dose: 1.0 mg/kg/injection, schedule: Q01DX009 (ip), vehicle: saline); 120 % of control (endpoint: median survival time, dose: 2.0 mg/kg/injection, schedule: Q01DX009 (ip), vehicle: saline); 103 % of control (endpoint: median survival time, dose: 4.0 mg/kg/injection, schedule: Q01DX009 (ip), vehicle: saline).
Consider `CC(=O)c1cno[n+]1[O-]`, for which the T/C reads like this: (endpoint: mean survival time, dose: 5.0 mg/kg/injection, schedule: Q01DX009 (ip), vehicle: saline with Tween-80) 97 % of control; (endpoint: mean survival time, dose: 10.0 mg/kg/injection, schedule: Q01DX009 (ip), vehicle: saline with Tween-80) 113 % of control.
Consider `O=[N+]([O-])c1ccc2nc(Cl)sc2c1`, for which the T/C runs as follows: under setting [1], 102 % of control; under setting [2], 103 % of control; under setting [3], 100 % of control; under setting [4], 86 % of control.
For `CSCCCNC(=O)c1csc(CCNC(=O)c2ccccc2)n1`, the T/C reads like this: under setting [3], 108 % of control; under setting [5], 101 % of control; under setting [6], 101 % of control.
As for `NCC(=O)NC1(C(=O)O)CCCC1` (H-Gly-[Ac5c]-OH), the T/C is 87 % of control (endpoint: mean survival time, dose: 62.5 mg/kg/injection, schedule: Q01DX001 (ip), vehicle: saline); 107 % of control (endpoint: mean survival time, dose: 62.5 mg/kg/injection, schedule: Q04DX003 (ip), vehicle: saline); 91 % of control (endpoint: mean survival time, dose: 125.0 mg/kg/injection, schedule: Q01DX001 (ip), vehicle: saline); 107 % of control (endpoint: mean survival time, dose: 125.0 mg/kg/injection, schedule: Q04DX003 (ip), vehicle: saline); 112 % of control (endpoint: mean survival time, dose: 250.0 mg/kg/injection, schedule: Q01DX001 (ip), vehicle: saline); 152 % of control (endpoint: mean survival time, dose: 500.0 mg/kg/injection, schedule: Q04DX003 (ip), vehicle: saline).
With `C1=C[N]2c3c4c(ccc3=C1)=CC=C[N]4[Ga]2[c]1ccccc1`, the T/C under setting [4] is 118 % of control.
For the compound `CC12CCC3C(CCC(CC(=O)O)C3(C)CC(=O)O)C1CCC2=O` (centres undefined), the T/C by setting is: under setting [7], 98 % of control; under setting [8], 97 % of control; under setting [9], 97 % of control.
Take `CCCCCCCCCCCCc1ccc(NC(C)=O)cc1`: the T/C reads like this: (endpoint: mean survival time, dose: 100.0 mg/kg/injection, schedule: Q04DX003 (ip), vehicle: other) 97 % of control; (endpoint: mean survival time, dose: 200.0 mg/kg/injection, schedule: Q04DX003 (ip), vehicle: other) 95 % of control; (endpoint: mean survival time, dose: 400.0 mg/kg/injection, schedule: Q04DX003 (ip), vehicle: other) 100 % of control.
In the case of `CCc1ccccc1NC(=O)Nc1ccc(N(C)C(C)=O)cc1`, the T/C was 95 % of control under setting [3], 93 % of control under setting [5] and 93 % of control under setting [6].
Regarding `CN(C)N=Nc1ccccc1C(=O)NCC(N)=O`, the T/C (endpoint: mean survival time, dose: 18.75 mg/kg/injection, schedule: Q01DX009 (ip), vehicle: Klucel (hydroxypropylcellulose) (HPC)) was 103 % of control and 107 % of control; the T/C (endpoint: mean survival time, dose: 37.5 mg/kg/injection, schedule: Q01DX009 (ip), vehicle: Klucel (hydroxypropylcellulose) (HPC)) was 115 % of control and 112 % of control.
On to `O=C(CC(=O)C(F)(F)C(F)(F)C(F)(F)F)C(F)(F)F.O=C(CC(=O)C(F)(F)C(F)(F)C(F)(F)F)C(F)(F)F.O=C(CC(=O)C(F)(F)C(F)(F)C(F)(F)F)C(F)(F)F.O=C(CC(=O)C(F)(F)C(F)(F)C(F)(F)F)C(F)(F)F.[Yb]`, for which the T/C reads like this: (endpoint: median survival time, dose: 50.0 mg/kg/injection, schedule: Q04DX002 (ip), vehicle: saline with Tween-80) 100 % of control; (endpoint: median survival time, dose: 100.0 mg/kg/injection, schedule: Q04DX002 (ip), vehicle: saline with Tween-80) 100 % of control; (endpoint: median survival time, dose: 200.0 mg/kg/injection, schedule: Q04DX002 (ip), vehicle: saline with Tween-80) 100 % of control; (endpoint: median survival time, dose: 400.0 mg/kg/injection, schedule: Q04DX002 (ip), vehicle: saline with Tween-80) 100 % of control.
With `CC(C)C(O)C(C)[N+](=O)[O-]` (centres undefined), the T/C runs as follows: (endpoint: mean survival time, dose: 25.0 mg/kg/injection, schedule: Q01DX001 (ip), vehicle: saline with Tween-80) 86 % of control; (endpoint: mean survival time, dose: 50.0 mg/kg/injection, schedule: Q01DX001 (ip), vehicle: saline with Tween-80) 96 % of control.
Turning to `Nc1ccc2c(c1)CN1C(=O)c3ccccc3C1=N2`, the T/C by setting is: (endpoint: median survival time, dose: 12.5 mg/kg/injection, schedule: Q01DX009 (ip), vehicle: saline with Tween-80) 111 % of control; (endpoint: median survival time, dose: 25.0 mg/kg/injection, schedule: Q01DX009 (ip), vehicle: saline with Tween-80) 115 % of control; (endpoint: median survival time, dose: 50.0 mg/kg/injection, schedule: Q01DX009 (ip), vehicle: saline with Tween-80) 116 % of control; (endpoint: median survival time, dose: 100.0 mg/kg/injection, schedule: Q01DX009 (ip), vehicle: saline with Tween-80) 108 % of control.
Consider `COc1ccc(/C=C2\Oc3cc(O)ccc3C2=O)cc1O`, for which the T/C by setting is: under setting [7], 96 % of control; under setting [8], 94 % of control; under setting [9], 91 % of control.
In the case of `COC(=O)CCC1CCC(=O)O1` (centres undefined), the T/C under setting [3] was 98 % of control; the T/C (endpoint: mean survival time, dose: 100.0 mg/kg/injection, schedule: Q04DX003 (ip), vehicle: saline) is 102 % of control; the T/C under setting [5] was 105 % of control; the T/C (endpoint: mean survival time, dose: 200.0 mg/kg/injection, schedule: Q04DX003 (ip), vehicle: saline) was 100 % of control; the T/C under setting [6] is 94 % of control; the T/C (endpoint: mean survival time, dose: 400.0 mg/kg/injection, schedule: Q04DX003 (ip), vehicle: saline) is 100 % of control.
Turning to `CC(C)C1=CC23CCC4C(C)(C(=O)O)CCCC4(C)C2CC1OO3` (centres undefined), the T/C by setting is: under setting [4], 93 % of control; under setting [10], 92 % of control; under setting [11], 95 % of control.
For the compound `COC(=O)/C=N/NS(=O)(=O)c1cccc(N)c1`, the T/C was 110 % of control (endpoint: mean survival time, dose: 25.0 mg/kg/injection, schedule: Q04DX003 (ip), vehicle: water); 104 % of control (endpoint: mean survival time, dose: 50.0 mg/kg/injection, schedule: Q04DX003 (ip), vehicle: water); 108 % of control (endpoint: mean survival time, dose: 100.0 mg/kg/injection, schedule: Q04DX003 (ip), vehicle: water); 112 % of control (endpoint: mean survival time, dose: 200.0 mg/kg/injection, schedule: Q04DX003 (ip), vehicle: water).
For the compound `CC1(C)CN(c2ccccc2)N(CN2CCOCC2)C1=O`, the T/C (endpoint: mean survival time, dose: 12.5 mg/kg/injection, schedule: Q01DX009 (ip), vehicle: Klucel (hydroxypropylcellulose) (HPC)) was 89 % of control.
`CCn1c(=S)[nH]c(=O)c2n[nH]nc21`: the T/C by setting is: (endpoint: mean survival time, dose: 100.0 mg/kg/injection, schedule: Q01DX009 (ip), vehicle: acetone) 100 % of control; (endpoint: mean survival time, dose: 200.0 mg/kg/injection, schedule: Q01DX009 (ip), vehicle: acetone) 94 % of control.
Turning to `CCOC(=O)C(C(C)=O)C(C)=O`, the T/C was 102 % of control under setting [4], 94 % of control under setting [10] and 94 % of control under setting [11].
Turning to `CN(C)c1ccc(N=Nc2ccc(S(=O)(=O)O)cc2)cc1.CN(C)c1ccc(N=Nc2ccc(S(=O)(=O)O)cc2)cc1.[NH-]C1CCCCC1[NH-].[Pt+2]`, the T/C runs as follows: (endpoint: median survival time, dose: 3.12 mg/kg/injection, schedule: Q04DX003 (ip), vehicle: saline) 121 % of control and 107 % of control; (endpoint: median survival time, dose: 6.25 mg/kg/injection, schedule: Q04DX003 (ip), vehicle: saline) 109 % of control; (endpoint: median survival time, dose: 100.0 mg/kg/injection, schedule: Q04DX003 (ip), vehicle: saline) 105 % of control; (endpoint: median survival time, dose: 200.0 mg/kg/injection, schedule: Q04DX003 (ip), vehicle: saline) 116 % of control.
As to `CCC(=O)NC1=CC(=O)c2ccccc2C1=O`, the T/C reads like this: under setting [1], 101 % of control; under setting [2], 100 % of control.
As to `CCSc1nc(C)cc(Cl)n1`, the T/C under setting [2] was 102 % of control, the T/C under setting [3] is 104 % of control and the T/C under setting [5] was 105 % of control.
Consider `Cc1cc2c3ccccc3nc(C(F)(F)F)n2n1`, for which the T/C (endpoint: mean survival time, dose: 100.0 mg/kg/injection, schedule: Q04DX003 (ip), vehicle: saline sonified) was 96 % of control; the T/C (endpoint: mean survival time, dose: 200.0 mg/kg/injection, schedule: Q04DX003 (ip), vehicle: saline sonified) is 100 % of control; the T/C (endpoint: mean survival time, dose: 400.0 mg/kg/injection, schedule: Q04DX003 (ip), vehicle: saline sonified) is 100 % of control.
As for `CC(C)NS(=O)(=O)c1ccccc1`, the T/C was 97 % of control under setting [4], 96 % of control under setting [10] and 99 % of control under setting [11].

The record behind these values is PubChem BioAssay AID256 (DTP/NCI, 2004).
